In brackets after ≈: the same amount, converted by molar mass. Counter-ions that a name gives are not always drawn. Like-named read-outs stand apart in the source and are kept apart here.
Key:
[1] = not given; remark: listed apart in the source
[2] = target: histone deacetylase (HeLa nuclear extracts); assay: In vitro assay for inhibition of histone deacetylase with fluorescent-labelled substrate (Fluor de Lys); assay type: biochemical; settings: HeLa nuclear extracts 60 μg/ml, 75 μM substrate
Source text: The in vitro assay for inhibition of histone deacetylase (see example C.1) measures the inhibition of HDAC enzymatic activity obtained with the compounds of formula (I).
The HDAC Fluorescent Activity Assay/Drug Discovery Kit of Biomol (cat. No: AK-500-0001) was used. The HDAC Fluorescent Activity Assay is based on the Fluor de Lys (Fluorogenic Histone deAcetylase Lysyl) substrate and developer combination. The Fluor de Lys substrate, comprises an acetylated lysine side chain. Deacetylation of the substrate sensitizes the substrate so that, in the second step, treatment with the Fluor de Lys developer produces a fluorophore.
HeLa nuclear extracts (supplier: Biomol) were incubated at 60 μg/ml with 75 μM of substrate. The Fluor de Lys substrate was added in a buffer containing 25 mM Tris, 137 mM NaCl, 2.7 mM KCl and 1 mM MgCl2.6H2O at pH 7.4. After 30 min, 1 volume of the developer was added. The fluorophore was excited with 355 nm light and the emitted light (450 nm) was be detected on a fluorometric plate reader.
For each experiment, controls (containing HeLa nuclear extract and buffer), a blank incubation (containing buffer but no HeLa nuclear extract) and samples (containing compound dissolved in DMSO and further diluted in buffer and HeLa nuclear extract) were run in parallel. In first instance, compounds were tested at a concentration of 10^−5M. […] All sample were tested 4 times. In each test the blank value was subtracted from both the control and the sample values. The control sample represented 100% of substrate deacetylation. For each sample the fluorescence was expressed as a percentage of the mean value of the controls. […] Herein the effects of test compounds are expressed as pIC50 (the negative log value of the IC50-value) (see Table F-2).

[3] = test system: A2780 ovarian carcinoma cells; assay: Antiproliferative activity on A2780 cells (MTT); assay type: cell-based; settings: Homo sapiens, 96 h, four days of incubation, read-out: Cellular activity pIC50 C.2 (converted)
Protocol: Cellular activity of the compounds of formula (I) was determined on A2780 tumour cells using a colorimetric assay for cell toxicity or survival (Mosmann Tim, Journal of Immunological Methods 65: 55-63, 1983) (see example C.2).
All compounds tested were dissolved in DMSO and further dilutions were made in culture medium. Final DMSO concentrations never exceeded 0.1% (v/v) in cell proliferation assays. Controls contained A2780 cells and DMSO without compound and blanks contained DMSO but no cells. MTT was dissolved at 5 mg/ml in PBS. A glycine buffer comprised of 0.1 M glycine and 0.1 M NaCl buffered to pH 10.5 with NaOH (1N) was prepared (all reagents were from Merck).
The human A2780 ovarian carcinoma cells (a kind gift from Dr. T. C. Hamilton [Fox Chase Cancer Centre, Pennsylvania, USA]) were cultured in RPMI 1640 medium supplemented with 2 mM L-glutamine, 50 μg/ml gentamicin and 10% fetal calf serum. Cells were routinely kept as monolayer cultures at 37° C. in a humidified 5% CO2 atmosphere. Cells were passaged once a week using a trypsin/EDTA solution at a split ratio of 1:40. All media and supplements were obtained from Life Technologies. Cells were free of mycoplasma contamination as determined using the Gen-Probe Mycoplasma Tissue Culture kit (supplier: BioMérieux).
Cells were seeded in NUNC™ 96-well culture plates (Supplier: Life Technologies) and allowed to adhere to the plastic overnight. Densities used for plating were 1500 cells per well in a total volume of 200 μl medium. After cell adhesion to the plates, medium was changed and drugs and/or solvents were added to a final volume of 200 μl. Following four days of incubation, medium was replaced by 200 μl fresh medium and cell density and viability was assessed using an MTT-based assay. To each well, 25 μl MTT solution was added and the cells were further incubated for 2 hours at 37° C. The medium was then carefully aspirated and the blue MTT-formazan product was solubilized by addition of 25 μl glycine buffer followed by 100 μl of DMSO. […] Within an experiment, the results for each experimental condition are the mean of 3 replicate wells. For initial screening purposes, compounds were tested at a single fixed concentration of 10^−6 M. For active compounds, the experiments were repeated to establish full concentration-response curves. For each experiment, controls (containing no drug) and a blank incubation (containing no cells or drugs) were run in parallel. The blank value was subtracted from all control and sample values. For each sample, the mean value for cell growth (in absorbance units) was expressed as a percentage of the mean value for cell growth of the control. […] Herein the effects of test compounds are expressed as pIC50 (the negative log value of the IC50-value) (see Table F-2).

[4] = Solubility/stability at pH 2.3 (chemiluminescent nitrogen detector); assay type: physicochemical; settings: pH 2.3, aqueous buffer; read-out: Solubility C.3.b. pH = 2.3
Protocol: The solubility of a compound measures the ability of a compound to stay in solution. In the first method, the ability of a compound to stay in aqueous solution upon dilution (see example C.3.a) is measured. DMSO-stock solutions are diluted with a single aqueous buffer solvent in different consecutive steps. In this method (C.3.a), mixtures are then scanned in the BD Gentest Solubility Scanner for the occurrence of precipitation. In the second method the solubility of a compound at different pH's can be measured with the use of a chemiluminescent nitrogen detector (see example C.3.b).
C.3.b. Solubility/Stability at pH 2.3
The solubility of a compound, at pH 2.3, can also be measured with the use of a chemiluminescent nitrogen detector (see Table F-2).

Row | SMILES | melting point [°C] | Enzymatic activity pIC50 C.1 [2] | IC50 [3] [nM] | also measured
1 | CC(=O)NC(/C=C/c1ccccc1)CN1CCN(c2ncc(C(=O)NO)cn2)CC1 (stereo not drawn) (as salt: trifluoroacetic acid salt) (hydrate or solvate) [Compound 1] | 166 |  |  | 
2 | O=C(NO)c1cnc(N2CCN(CC(/C=C/c3ccccc3)N3C(=O)CCC3=O)CC2)nc1 (stereo not drawn) (as salt: trifluoroacetic acid salt) (hydrate or solvate) [Compound 3] | 148 |  |  | 
3 | O=C(NO)c1cnc(N2CCN(CC(/C=C/c3ccccc3)Oc3ccc(F)cc3)CC2)nc1 (stereo not drawn) (as salt: trifluoroacetic acid salt) (hydrate or solvate) [Compound 4] | 115 |  |  | 
4 | NC(/C=C/c1ccccc1)CN1CCN(c2ncc(C(=O)NO)cn2)CC1 (stereo not drawn) (as salt: trifluoroacetic acid salt) [Compound 2] | 124 |  |  | 
5 | COc1cc(N)c(Cl)cc1C(=O)NC1CCN(CCCOc2ccc(F)cc2)CC1OC (stereo not drawn) [Cisapride] |  |  |  | % metabolism ([1]; human, 15 min, 5 μM): 45%
6 | CC(=O)NC(/C=C/c1ccccc1)CN1CCN(c2ncc(C(=O)NO)cn2)CC1 (stereo not drawn) [Compound 1] |  | 8.2 | 398 | solubility [4]: 2400 µg/mL (≈ 5.85 mM)
7 | NC(/C=C/c1ccccc1)CN1CCN(c2ncc(C(=O)NO)cn2)CC1 (stereo not drawn) [Compound 2] |  | 8.2 | 79.4 | solubility [4]: 3100 µg/mL (≈ 8.41 mM)
8 | O=C(NO)c1cnc(N2CCN(CC(/C=C/c3ccccc3)N3C(=O)CCC3=O)CC2)nc1 (stereo not drawn) [Compound 3] |  | 7.5 | 7940 | 
9 | O=C(NO)c1cnc(N2CCN(CC(/C=C/c3ccccc3)Oc3ccc(F)cc3)CC2)nc1 (stereo not drawn) [Compound 4] |  | 7.3 | 1580 | 
10 | CS(=O)(=O)NC(/C=C/c1ccc(F)cc1)CN1CCN(c2ccc(C(=O)NO)cn2)CC1 (stereo not drawn) [Compound 6] |  | 7.0 | 5010 | 
11 | CCCO [propanol] |  |  |  | % metabolism ([1]; after 15 min incubation with active microsomes, compound 5 μM): 25%

— patent US8664223B2, “Pyridine and pyrimidine derivatives as inhibitors of histone deacetylase” (Janssen Pharmaceutica N.V, priority 2006, dated 2014)
